The values that follow come from patent publication US12593847B2, “Formulations” (SYNGENTA CROP PROTECTION AG, priority 2020, dated 2026).

The nature of data set [1]: Example 2: storage stability of standard formulation (pH 6.05), one year at 20-25° C. It counts as physicochemical. Particulars: Example 2 formulation; for Concentration at t = 0: pH 6.05, before storage; for % loss: pH 6.05, one year at 20-25° C.; for Concentration at t = 1 year and 20-25 ° C.: pH 6.05, stored one year at 20-25° C. The procedure: Another standard formulation containing the follow active ingredients was created as follows:
The formulation was stored for one year at 20-25° C. The pH of 6.05 providing excellent chemical stability for picarbutrazox as well at the other active ingredients.

Data set [2] is described as follows: Example 8: picarbutrazox and thiamethoxam stability relative to pH, 1 month at 50° C. Format: physicochemical. As to conditions: for Change in thiamethoxam concentration after storage for 1 month at 50° C.: Example 8 formulation (20.8% w/w thiamethoxam); for Change in picarbutrazox concentration after storage for 1 month at 50° C.: Example 8 formulation (0.42% w/w picarbutrazox). An excerpt:
Four standard formulations containing the follow active ingredients were created. The standard formulations contained customary formulation components and were then pH adjusted via the addition of either Sodium Hydroxide (NaOH) or Phosphoric Acid (H3PO4) to obtain a range of pH's.

A short description of data set [3]: Example 7: picarbutrazox and thiamethoxam stability relative to pH, 54° C. for 2 weeks. It counts as physicochemical. Particulars: for Change in thiamethoxam concentration after storage at 54° C. for 2 weeks: Example 7 formulation (20.8% w/w thiamethoxam); for Change in picarbutrazox concentration after storage at 54° C. for 2 weeks: Example 7 formulation (0.42% w/w picarbutrazox). The source says:
Two standard formulations containing the follow active ingredients were created. The standard formulations contained customary formulation components and were then pH adjusted via the addition of either Sodium Hydroxide (NaOH) or Phosphoric Acid (H3PO4) to obtain a range of pH's.

For data set [4] the following is noted: cited from earlier work; for time for degradation in water of at least 50%: pH 9.
A short description of data set [5]: Example 10: storage stability of mixtures of 36% w/w and 0.8% w/w PCBX formulations, 2 weeks at 54 C. Format: physicochemical. As to conditions: for Actual Measured % w/w PCBX in the combined mixture: before storage. The method, then:
A standard formulation was prepared which contained picarbutrazox at 36% w/w concentration. This was then mixed in differing ratios with a standard formulation which contained picarbutrazox at 0.8% w/w concentration. The mixtures were stored for 2 weeks at 54 C.

The nature of data set [6]: Example 9: storage stability of 43.3% w/w picarbutrazox formulation. It counts as physicochemical. Particulars: Example 9 formulation, picarbutrazox only AI at 43.3% w/w, Initial pH 7.2. The procedure:
A standard formulation was prepared which contained picarbutrazox as the only Al at 43.3% w/w concentration. The initial pH was pH 7.2.

For data set [7] the following is noted: pH 7; cited from earlier work.
[8] abbreviates: 0% of 36% w/w PCBX formulation + 100% of 0.8% w/w PCBX formulation.
[9] abbreviates: mixture 30% of 36% w/w PCBX formulation + 70% of 0.8% w/w PCBX formulation.
Where [10] appears, read: mixture 60% of 36% w/w PCBX formulation + 40% of 0.8% w/w PCBX formulation.
The mark [11] stands for this setting: mixture 90% of 36% w/w PCBX formulation + 10% of 0.8% w/w PCBX formulation.

Read-outs that look alike come from different tables or passages of the source.

Regarding `N#Cc1c[nH]cc1-c1cccc2c1OC(F)(F)O2` [Fludioxonil], in data set [1], the “Concentration at t = 0” value is on record as 0.955 % w/w; the “% loss” value came to 1%; the “Concentration at t = 1 year and 20-25 ° C.” value stood at 0.944 % w/w.
Turning to `CN1COCN(Cc2cnc(Cl)s2)/C1=N\[N+](=O)[O-]` [Thiamethoxam], the “Change in thiamethoxam concentration after storage for 1 month at 50° C.” value is −1% in data set [2] (Initial pH 5.7), −1% in data set [2] (Initial pH 6.0), −5% in data set [2] (Initial pH 7.2) and −7% in data set [2] (Initial pH 8.0). The “Change in thiamethoxam concentration after storage at 54° C. for 2 weeks” value in data set [3] (Initial pH 7.2) is reported as −1%; in data set [3] (Initial pH 8.0) it was −3%. Moreover, the “Concentration at t = 0” value in data set [1] stood at 19.5 % w/w. In addition, the “% loss” value in data set [1] is reported as 2%. Also, the “Concentration at t = 1 year and 20-25 ° C.” value in data set [1] turned out to be 19.1 % w/w. In addition, the Hydrolysis entry in data set [4] (pH 1, 5, 7 (25° C.)) is given as “stable”. Besides, the “Hydrolysis DT50” value in data set [4] (pH 9, 25° C.) was 7.3 to 15.6 days.
As to `COCC(=O)N(c1c(C)cccc1C)[C@H](C)C(=O)OC` [Mefenoxam], in data set [1], the “Concentration at t = 0” value is reported as 5.78 % w/w; the “% loss” value is given as 0%; the “Concentration at t = 1 year and 20-25 ° C.” value is given as 5.77 % w/w.
In the case of `Cn1nnnc1/C(=N\OCc1cccc(NC(=O)OC(C)(C)C)n1)c1ccccc1` [picarbutrazox, 1,1-Dimethylethyl N-(6-((((Z)-((1-methyl-1H-tetrazol-5-yl)phenylmethylene)amino)oxy)methyl)-2-pyridinyl)carbamate], the “Change in PCBX concentration after storage for 2 weeks at 54 C.” value in data set [5] (setting [8]) came out at 11%; in data set [5] (setting [9]), 0%; in data set [5] (setting [10]), 0%; in data set [5] (setting [11]), 0%. Besides, the “Actual Measured % w/w PCBX in the combined mixture” value in data set [5] (setting [8]) is 0.85% w/w; in data set [5] (setting [9]), 11.4% w/w; in data set [5] (setting [10]), 21.8% w/w; in data set [5] (setting [11]), 32.6% w/w. Besides, the “Change in picarbutrazox concentration after storage for 1 month at 50° C.” value was −16% in data set [2] (Initial pH 5.7); −16% in data set [2] (Initial pH 6.0); −13% in data set [2] (Initial pH 7.2); −5% in data set [2] (Initial pH 8.0); −1% in data set [6]. Moreover, the entries for the “Change in picarbutrazox concentration after storage at 54° C. for 2 weeks” value in data set [3] (Initial pH 7.2) and in data set [3] (Initial pH 8.0) were −10% and −6%, respectively. The “Concentration at t = 0” value in data set [1] is 0.365 % w/w. For the same molecule, the “% loss” value in data set [1] is listed as 0%. Further, the “Concentration at t = 1 year and 20-25 ° C.” value in data set [1] is listed as 0.367 % w/w. In addition, the “Change in picarbutrazox concentration after storage for 2 weeks at 54° C.” value in data set [6] is −2%.
With `CNC(=O)c1cc(Cl)cc(C)c1NC(=O)c1cc(Br)nn1-c1ncccc1Cl` [chlorantraniliprole], the “Aqueous photolysis DT50” value in data set [7] is recorded as “(25° C.). Aqueous photolysis DT50 0.37 d (pH 7)”. In addition, the Hydrolysis entry in data set [4] (pH 4-7 (25° C.)) was “stable”. The “Hydrolysis DT50” value in data set [4] (pH 9, 25° C.) is 10 days. For the same molecule, in data set [4], the “time for degradation in water of at least 50%” value is recorded as “less than 30 days”.
As for `Cn1cc(C(=O)Nc2ccccc2C2CC2C2CC2)c(C(F)F)n1` (centres unmarked) [Sedaxane], in data set [1], the “Concentration at t = 0” value was found to be 0.974 % w/w; the “% loss” value is reported as 0%; the “Concentration at t = 1 year and 20-25 ° C.” value stood at 0.970 % w/w.
Take `CNC(=O)c1cc(C#N)cc(C)c1NC(=O)c1cc(Br)nn1-c1ncccc1Cl` [cyantraniliprole]: the “Hydrolysis DT50” value in data set [4] (pH 4, 20° C.) was 261 days; in data set [4] (pH 7, 20° C.) it was 61 days; in data set [4] (pH 9, 20° C.), 1.8 days. Further, in data set [4], the “time for degradation in water of at least 50%” value is recorded as “less than 30 days”.
